# Source: patent US9296748B2, “Pyridinones” (Boehringer Ingelheim International GmbH, priority 2013, dated 2016)
# Target: BRD4-BD1 (Homo sapiens (Human), UniProt O60885)
# Test: BRD4-H4 Tetraacetylated Peptide Inhibition AlphaScreen
# Format: binding
# Details: GST-BRD4-BD1 (aa 44-168), biotinylated Acetyl-Histone H4 peptide
# Experimental: Compounds are diluted in serial dilution 1:5 in assay buffer from 10 mM stock in DMSO (100 μM start concentration) in white OptiPlate-384 (PerkinElmer). […] Subsequently, 6 μl of premixed AlphaLISA Glutathione Acceptor Beads and AlphaScreen Streptavidin Donor Beads from PerkinElmer (in assay buffer at a concentration of 10 μg/ml each) are added and the samples are incubated for 30 min at RT in the dark (shaking 300 rpm). Afterwards, the signal is measured in a PerkinElmer Envision HTS Multilabel Reader using the AlphaScreen protocol from PerkinElmer. […] Negative control values are entered as low basis value when using the software GraphPad Prism for calculations. Furthermore, a positive control (probe molecule JQ1+ with protein/peptide mix) is pipetted. Determination of IC50 values are carried out using GraphPad Prism 3.03 software (or updates thereof).
row,Structure (SMILES),IC50
1,Cn1cc(-c2nc3cnc(N4CCOCC4)cc3n2Cc2ccccc2)cc(Cl)c1=O [II-32],105 nM
2,Cc1cc(-c2nc3cnccc3n2Cc2ccc(F)c(F)c2)cn(C)c1=O [II-27],166 nM
3,Cc1cc(-c2nc3ccc(OC(C)C)nc3n2C(C)c2ccccn2)cn(C)c1=O (stereo not shown) [III-7],220 nM
4,Cc1cc(-c2nc3ccc(N4CCN(C)CC4)cc3n2Cc2ccccc2)c[nH]c1=O [Example I-7],95 nM
5,Cc1cc(-c2nc3ccc(C4CCN(C)C(=O)C4)cc3n2[C@@H](C)c2ccccc2)nn(C)c1=O (stereo partly shown) [Example I-38],32 nM
6,CCOc1cc(=O)n(C)cc1-c1nc2cnc(C3CCOCC3)cc2n1[C@@H](C)c1ccccc1 [II-44],188 nM
7,Cc1cc(-c2nc3cnc(N4CCOC[C@@H]4C)cc3n2[C@@H](C)c2ccccn2)cn(C)c1=O [II-29],130 nM
8,Cn1cc(-c2nc3ccccc3n2Cc2ccccc2)ccc1=O [Example I-2],1540 nM
9,COC[C@H](C)n1c(-c2cc(C)c(=O)n(C)c2)nc2ccc(N)cc21 [Example I-32],268 nM
10,"Cn1cc(-c2nc3ccccc3n2Cc2ccccc2)cc(N)c1=O [Example V-2, 3-amino-5-(1-benzyl-1H-benzoimidazol-2-yl)-1-methyl-1H-pyridin-2-one]",1350 nM
11,Cc1cc(-c2nc3ccc(C4CCN(C)C(=O)C4)cc3n2[C@@H](C)c2ccccc2)cn(C)c1=O (stereo partly shown) [Example I-35],23 nM
12,CN1CCN(c2ccc3nc(-c4ccc(=O)n(C)c4)n(Cc4ccccc4)c3c2)CC1 [Example I-5],547 nM
13,Cc1cc(-c2nc3cnc(C4CCOCC4)cc3n2[C@@H](C)c2ccccn2)cn(C)c1=O [II-34],120 nM
14,COC[C@H](C)n1c(-c2cc(C)c(=O)n(C)c2)nc2cnc(N3CCOC[C@@H]3C)cc21 [II-11],102 nM
15,Cc1cc(-c2nc3cnc(OC(C)C)cc3n2[C@@H](C)c2ccccn2)cn(C)c1=O [II-38],205 nM
16,COC[C@H](C)n1c(-c2cc(C)c(=O)n(C)c2)nc2ccc(C(C)C)cc21 [Example I-28],174 nM
17,Cc1cc(-c2nc3cnc(N4CCOCC4)cc3n2Cc2cccnc2)cn(C)c1=O [II-20],33 nM
18,Cc1cc(-c2nc3cnc(N4CCOCC4)cc3n2C(C)c2ccccn2)cn(C)c1=O (stereo not shown) [II-37],172 nM
19,Cc1cc(-c2nc3cnc(N4CCOCC4)cc3n2[C@H](C)c2ccccc2)cn(C)c1=O [II-18],233 nM
20,Cc1cc(-c2nc3cnc(C4CCOCC4)cc3n2[C@H](C)c2ccccc2)cn(C)c1=O [II-45],95 nM
21,Cc1cc(-c2nc3cnc(N)cc3n2[C@@H](C)c2ccccc2)cn(C)c1=O [II-42],35 nM
22,Cc1cc(-c2nc3cnccc3n2Cc2ccccc2)cn(C)c1=O [II-8],148 nM
23,Cc1cc(-c2nc3cnc(OC4CCOC4)cc3n2[C@@H](C)c2ccccn2)cn(C)c1=O (stereo partly shown) [II-39],211 nM
24,COC[C@H](C)n1c(-c2cc(C)c(=O)n(C)c2)nc2ccc(N3CCOC[C@@H]3C)cc21 [Example I-31],75 nM
25,Cc1cc(-c2nc3cc(N)cnc3n2Cc2ccccc2)cn(C)c1=O [IV-12],38 nM

row,Structure (SMILES),IC50
1,Cc1cc(-c2nc3ccc(C(C)C)cc3n2[C@@H](C)c2ccccn2)cn(C)c1=O [Example I-29],180 nM
2,Cc1cc(-c2nc3ccc(C4(C(F)(F)F)CC4)cc3n2[C@@H](C)c2ccccc2)cn(C)c1=O [Example I-37],103 nM
3,CCCOc1ccc2nc(-c3cc(C)c(=O)n(C)c3)n([C@@H](C)c3ccccc3)c2n1 [III-6],108 nM
4,"Cc1cc(-c2nc3ccc(N)cc3n2Cc2ccccc2)cn(C)c1=O [Example I-9, 5-(6-Amino-1-benzyl-1H-benzoimidazol-2-yl)-1,3-dimethyl-1H-pyridin-2-one]",58 nM
5,CCn1cc(-c2nc3cnc(N4CCN(C)CC4)cc3n2Cc2ccccc2)cc(C)c1=O [II-4],55 nM
6,Cc1nc(-c2nc3ccc(N4CCN(C)CC4)cc3n2Cc2ccccc2)cn(C)c1=O [Example I-14],36 nM
7,Cc1cc(-c2nc3ccccc3n2Cc2ccccc2)cn(C)c1=O [Example I-13],68 nM
8,Cc1cc(-c2nc3ccc(C4CCOCC4)cc3n2Cc2ccccn2)cn(C)c1=O [Example I-25],72 nM
9,CC1CC(=O)NN=C1c1ccc2c(c1)nc(-c1ccc(=O)n(C)c1)n2Cc1ccccc1 (stereo not shown) [IV-2],218 nM
10,Cc1cc(-c2nc3ccc(C4CN(C)CCO4)cc3n2[C@@H](C)c2ccccc2)cn(C)c1=O (stereo partly shown) [Example I-34],49 nM
11,Cc1cc(-c2nc3cnccc3n2Cc2ccccc2F)cn(C)c1=O [II-28],128 nM
12,Cc1c(-c2nc3cnc(N4CCN(C)CC4)cc3n2Cc2ccccc2)cn(C)c(=O)c1C [II-41],1200 nM
13,"Cc1cc(-c2nc3cnc(Cl)cc3n2Cc2ccccc2)cn(C)c1=O [II-7, 5-(1-Benzyl-6-chloro-1H-imidazo[4,5-c]pyridin-2-yl)-1,3-dimethyl-1H-pyridin-2-one]",175 nM
14,CN1CCN(c2ccc3nc(-c4ccc(=O)n(C)n4)n(Cc4ccccc4)c3c2)CC1 [Example I-16],192 nM
15,Cc1cc(-c2nc3cnc(C(C)C)cc3n2[C@@H](C)c2ccccc2)cn(C)c1=O [II-24],38 nM
16,Cc1cc(-c2nc3ccc(C#N)cc3n2Cc2ccccc2)cn(C)c1=O [Example I-23],190 nM
17,Cc1cc(-c2nc3ccc(OC(C)C)nc3n2[C@@H](C)c2ccccn2)nn(C)c1=O [III-4],118 nM
18,Cc1cc(-c2nc3cc(S(=O)(=O)N(C)C)cnc3n2Cc2ccccc2)cn(C)c1=O [IV-9],119 nM
19,Cn1cc(-c2nc3cccnc3n2Cc2ccccc2)ccc1=O [III-2],1780 nM
20,CN1CCN(c2ccc3nc(-c4cc(N)c(=O)n(C)c4)n(Cc4ccccc4)c3c2)CC1 [Example V-3],73 nM
21,Cc1cc(-c2nc3cccnc3n2Cc2ccccc2)cn(C)c1=O [III-3],45 nM
22,"Cc1cc(-c2nc3ccc(N4CCN(C)CC4)cc3n2Cc2ccccc2)cn(C)c1=O [Example I-1, 5-[1-Benzyl-6-(4-methylpiperazin-1-yl)-1H-1,3-benzodiazol-2-yl]-1,3-dimethyl-1,2-dihydropyridin-2-one]",12 nM
23,Cc1cc(-c2nc3cc(Cl)cnc3n2Cc2ccccc2)cn(C)c1=O [IV-3],188 nM
24,Cc1cc(-c2nc3cnc(N4CCOCC4)cc3n2Cc2ccncc2)cn(C)c1=O [II-14],63 nM
25,Cc1cc(-c2nc3cnc(Cl)cc3n2C(C)c2ccccn2)cn(C)c1=O (stereo not shown) [II-36],650 nM

row,Structure (SMILES),IC50
1,Cn1cc(-c2nc3ccc(N4CCOCC4)cc3n2Cc2ccccc2)ncc1=O [Example I-19],298 nM
2,"CNc1cc(-c2nc3ccccc3n2Cc2ccccc2)cn(C)c1=O [VI-1, 5-(1-benzyl-1H-1,3-benzodiazol-2-yl)-1-methyl-3-(methylamino)-1,2-dihydropyridin-2-one]",136 nM
3,Cc1cc(-c2nc3cnc(N4CCOCC4)cc3n2[C@@H](C)c2ccccc2)cn(C)c1=O [II-19],27 nM
4,"Cc1cc(-c2nc3ccc(F)cc3n2Cc2ccccc2)cn(C)c1=O [Example I-12, 5-(1-Benzyl-6-fluoro-1H-benzoimidazol-2-yl)-1,3-dimethyl-1H-pyridin-2-one]",18 nM
5,Cc1cc(-c2nc3cc(N4CCOCC4)cnc3n2Cc2ccccc2)cn(C)c1=O [IV-5],32 nM
6,COC[C@H](C)n1c(-c2cc(C)c(=O)n(C)n2)nc2ccc(N3CCOC[C@@H]3C)cc21 [Example I-36],65 nM
7,Cc1cc(-c2nc3ccc(C(=O)N(C)C)cc3n2Cc2ccccc2)cn(C)c1=O [Example I-24],128 nM
8,Cc1nc(-c2nc3cnc(N4CCN(C)CC4)cc3n2Cc2ccccc2)cn(C)c1=O [II-10],45 nM
9,Cc1cc(-c2nc3cnc(N4CCOCC4)nc3n2[C@@H](C)c2ccccc2)cn(C)c1=O [IV-15],17 nM
10,Cc1cc(-c2nc3cnc(C4CCOCC4)cc3n2[C@@H](C)c2ccccc2)nn(C)c1=O [II-25],8 nM
11,"CC1CC(=O)NN=C1c1ccc2c(c1)nc(-c1cc(N)c(=O)n(C)c1)n2Cc1ccccc1 (stereo not shown) [Example V-1, 6-[2-(5-Amino-1-methyl-6-oxo-1,6-dihydro-pyridin-3-yl)-1-benzyl-1H-benzoimidazol-5-yl]-5-methyl-4,5-dihydro-2H-pyridazin-3-one]",145 nM
12,Cc1cc(-c2nc3ncccc3n2Cc2ccccc2)cn(C)c1=O [IV-1],313 nM
13,Cc1cc(-c2nc3cccc(C)c3n2Cc2ccccn2)cn(C)c1=O [IV-10],109 nM
14,Cc1cc(-c2nc3cnc(C4=CCCCO4)cc3n2C(C)c2ccccn2)cn(C)c1=O (stereo not shown) [II-40],295 nM
15,"CN1CCN(c2ccc3nc(-c4ccc(=O)n(C)c4)n(Cc4ccccc4)c3n2)CC1 [III-1, 5-[3-Benzyl-5-(4-methyl-piperazin-1-yl)-3H-imidazo[4,5-b]pyridin-2-yl]-1-methyl-1H-pyridin-2-one]",697 nM
16,Cc1cc(-c2nc3cnc(N4CCOC[C@@H]4C)cc3n2[C@@H](C)c2ccccc2)cn(C)c1=O [II-31],40 nM
17,Cc1cc(-c2nc3ccc(N4CCN(C)CC4)cc3n2Cc2ccccc2)nn(C)c1=O [Example I-11],12 nM
18,Cc1cc(-c2nc3ccccc3n2Cc2ccccc2)c[nH]c1=O [Example I-8],609 nM
19,Cc1cc(-c2nc3cnc(N4CCOC[C@@H]4C)cc3n2C(C)CC2CC2)cn(C)c1=O (stereo partly shown) [II-43],50 nM
20,Cn1cc(-c2nc3ccc(N4CCOCC4)cc3n2Cc2ccccc2)cc(N)c1=O [Example V-4],133 nM
21,Cc1cc(-c2nc3cnc(N4CCN(C)CC4)cc3n2Cc2ccccc2)cn(C)c1=O [II-1],19 nM
22,Cc1cc(-c2nc3cnc(C4CCOCC4)cc3n2[C@@H](C)c2ccccc2)cn(C)c1=O [II-26],16 nM
23,Cc1nc(-c2nc3cnc(N4CCOCC4)cc3n2Cc2ccccc2)cn(C)c1=O [II-12],49 nM
